Measured values reported in ChEMBL document CHEMBL4308841, “Synthesis, in vitro antiproliferative activity, and kinase inhibitory effects of pyrazole-containing diarylureas and diarylamides” (Eur J Med Chem, 2018).

Assays:
[1] = tested on: HL-60(TB); experiment: Growth inhibition of human HL-60(TB) cells incubated for 48 hrs by sulforhodamine B assay; assay type: functional, cell-based; details: HL-60, 48 h
[2] = tested on: NCI-H23; experiment: Growth inhibition of human NCI-H23 cells incubated for 48 hrs by sulforhodamine B assay; assay type: functional, cell-based; details: NCI-H23, 48 h
[3] = tested on: SF-539; experiment: Growth inhibition of human SF539 cells incubated for 48 hrs by sulforhodamine B assay; assay type: functional, cell-based; details: SF-539, 48 h
[4] = tested on: UACC-257; experiment: Growth inhibition of human UACC257 cells incubated for 48 hrs by sulforhodamine B assay; assay type: functional, cell-based; details: UACC-257, 48 h
[5] = tested on: OVCAR-8; experiment: Growth inhibition of human OVCAR8 cells incubated for 48 hrs by sulforhodamine B assay; assay type: functional, cell-based; details: OVCAR-8, 48 h
[6] = tested on: NCI/ADR-RES; experiment: Growth inhibition of human NCI/ADR-RES cells incubated for 48 hrs by sulforhodamine B assay; assay type: functional, cell-based
[7] = tested on: UO-31; experiment: Growth inhibition of human UO31 cells incubated for 48 hrs by sulforhodamine B assay; assay type: functional, cell-based; details: UO-31, 48 h
[8] = tested on: DU-145; experiment: Growth inhibition of human DU145 cells incubated for 48 hrs by sulforhodamine B assay; assay type: functional, cell-based; details: DU-145, 48 h
[9] = tested on: BT-549; experiment: Growth inhibition of human BT549 cells incubated for 48 hrs by sulforhodamine B assay; assay type: functional, cell-based; details: BT-549, 48 h
[10] = tested on: MOLT-4; experiment: Growth inhibition of human MOLT4 cells assessed as cell growth at 0.01 uM incubated for 48 hrs by sulforhodamine B assay relative to control; assay type: functional; details: MOLT-4, 48 h, read-out: Activity
[11] = tested on: NCI-H522; experiment: Growth inhibition of human NCI-H522 cells assessed as cell growth at 0.01 uM incubated for 48 hrs by sulforhodamine B assay relative to control; assay type: functional; details: NCI-H522, 48 h, read-out: Activity
[12] = tested on: SK-MEL-28; experiment: Growth inhibition of human SK-MEL-28 cells assessed as cell growth at 0.01 uM incubated for 48 hrs by sulforhodamine B assay relative to control; assay type: functional; details: SK-MEL-28, 48 h, read-out: Activity
[13] = tested on: OVCAR-3; experiment: Growth inhibition of human OVCAR3 cells assessed as cell growth at 0.01 uM incubated for 48 hrs by sulforhodamine B assay relative to control; assay type: functional; details: OVCAR-3, 48 h, read-out: Activity
[14] = tested on: ACHN; experiment: Growth inhibition of human ACHN cells assessed as cell growth at 0.01 uM incubated for 48 hrs by sulforhodamine B assay relative to control; assay type: functional; details: read-out: Activity
[15] = tested on: CCRF-CEM; experiment: Growth inhibition of human CCRF-CEM cells assessed as cell growth at 0.1 uM incubated for 48 hrs by sulforhodamine B assay relative to control; assay type: functional; details: read-out: Activity
[16] = tested on: NCI-H322M; experiment: Growth inhibition of human NCI-H322M cells assessed as cell growth at 0.1 uM incubated for 48 hrs by sulforhodamine B assay relative to control; assay type: functional; details: read-out: Activity
[17] = tested on: KM12; experiment: Growth inhibition of human KM12 cells assessed as cell growth at 0.1 uM incubated for 48 hrs by sulforhodamine B assay relative to control; assay type: functional; details: KM12, 48 h, read-out: Activity
[18] = tested on: SK-MEL-28; experiment: Growth inhibition of human SK-MEL-28 cells assessed as cell growth at 0.1 uM incubated for 48 hrs by sulforhodamine B assay relative to control; assay type: functional; details: SK-MEL-28, 48 h, read-out: Activity
[19] = tested on: T47D; experiment: Growth inhibition of human T47D cells assessed as cell growth at 0.1 uM incubated for 48 hrs by sulforhodamine B assay relative to control; assay type: functional; details: read-out: Activity
[20] = tested on: CCRF-CEM; experiment: Growth inhibition of human CCRF-CEM cells assessed as cell growth at 1 uM incubated for 48 hrs by sulforhodamine B assay relative to control; assay type: functional; details: read-out: Activity
[21] = tested on: RPMI-8226; experiment: Growth inhibition of human RPMI8226 cells assessed as cell growth at 1 uM incubated for 48 hrs by sulforhodamine B assay relative to control; assay type: functional; details: RPMI-8226, 48 h, read-out: Activity
[22] = tested on: SK-MEL-2; experiment: Growth inhibition of human SK-MEL-2 cells assessed as cell growth at 1 uM incubated for 48 hrs by sulforhodamine B assay relative to control; assay type: functional; details: SK-MEL-2, 48 h, read-out: Activity
[23] = tested on: CAKI-1; experiment: Growth inhibition of human Caki1 cells assessed as cell growth at 1 uM incubated for 48 hrs by sulforhodamine B assay relative to control; assay type: functional; details: CAKI-1, 48 h, read-out: Activity
[24] = tested on: PC-3; experiment: Growth inhibition of human PC3 cells assessed as cell growth at 1 uM incubated for 48 hrs by sulforhodamine B assay relative to control; assay type: functional; details: PC-3, 48 h, read-out: Activity
[25] = tested on: MDA-MB-231; experiment: Growth inhibition of human MDA-MB-231 cells assessed as cell growth at 1 uM incubated for 48 hrs by sulforhodamine B assay relative to control; assay type: functional; details: MDA-MB-231, 48 h, read-out: Activity
[26] = tested on: Malme-3M; experiment: Growth inhibition of human MALME-3M cells assessed as cell growth at 100 uM incubated for 48 hrs by sulforhodamine B assay relative to control; assay type: functional; details: read-out: Activity
[27] = tested on: OVCAR-3; experiment: Growth inhibition of human OVCAR3 cells assessed as cell growth at 100 uM incubated for 48 hrs by sulforhodamine B assay relative to control; assay type: functional; details: OVCAR-3, 48 h, read-out: Activity
[28] = tested on: BT-549; experiment: Growth inhibition of human BT549 cells assessed as cell growth at 100 uM incubated for 48 hrs by sulforhodamine B assay relative to control; assay type: functional; details: BT-549, 48 h, read-out: Activity
[29] = read-out: LC50 (the source's name)
[30] = read-out: pLC50 (the source's name) (converted)

How did the IC50 [1] turn out when `COc1cc(Cl)cc(-c2nn(-c3cccc(NC(=O)Nc4cc(C(F)(F)F)cc(C(F)(F)F)c4)c3)cc2-c2ccncc2)c1` was run?
Its IC50 is 330 nM.

And the GI50 ([1]; read-out: GI50)?
The GI50 was 370 nM.

What about the LC50 ([1]; read-out: LC50) of the same compound?
Its LC50 is greater than 100 µM.

What about the TGI ([1]; read-out: TGI) of the same compound?
Its TGI is 3.24 µM.

And the GI50 ([1]; read-out: pGI50 (converted))?
Its GI50 is 324 nM.

And the LC50 ([1]; read-out: pLC50 (converted))?
Its LC50 is greater than 100 µM.

What about the TGI ([1]; read-out: pTGI (converted)) of the same compound?
Its TGI is 3.24 µM.

What about the IC50 [2] of the same compound?
The IC50 was 330 nM.

What about the GI50 ([2]; read-out: GI50) of the same compound?
Its GI50 is 328 nM.

And the LC50 ([2]; read-out: LC50)?
The LC50 was 0.05 µM.

And the TGI ([2]; read-out: TGI)?
The TGI was 1600 nM.

And the GI50 ([2]; read-out: pGI50 (converted))?
The GI50 was 331 nM.

What about the LC50 ([2]; read-out: pLC50 (converted)) of the same compound?
Its LC50 is 50.1 µM.

What about the TGI ([2]; read-out: pTGI (converted)) of the same compound?
Its TGI is 1580 nM.

What about the IC50 [3] of the same compound?
Its IC50 is 1410 nM.

What about the CC50 [3, 29] of the same compound?
The CC50 was 0.055 µM.

And the TGI ([3]; read-out: TGI)?
The TGI was 3.49 µM.

What about the GI50 ([3]; read-out: pGI50 (converted)) of the same compound?
Its GI50 is 1410 nM.

And the CC50 [3, 30]?
Its CC50 is 8.71 µM.

What about the TGI ([3]; read-out: pTGI (converted)) of the same compound?
Its TGI is 3.55 µM.

What about the IC50 [4] of the same compound?
The IC50 was 410 nM.

What about the GI50 ([4]; read-out: GI50) of the same compound?
Its GI50 is 412 nM.

What about the CC50 [4, 29] of the same compound?
The CC50 was 0.07 µM.

And the TGI ([4]; read-out: TGI)?
The TGI was 1840 nM.

What about the GI50 ([4]; read-out: pGI50 (converted)) of the same compound?
Its GI50 is 407 nM.

And the CC50 [4, 30]?
The CC50 was 7.08 µM.

And the TGI ([4]; read-out: pTGI (converted))?
The TGI was 1860 nM.

And the IC50 [5]?
The IC50 was 390 nM.

What about the GI50 ([5]; read-out: GI50) of the same compound?
The GI50 was 391 nM.

What about the TGI ([5]; read-out: TGI) of the same compound?
The TGI was 2190 nM.

What about the GI50 ([5]; read-out: pGI50 (converted)) of the same compound?
The GI50 was 389 nM.

What about the CC50 [5, 30] of the same compound?
Its CC50 is 47.9 µM.

And the TGI ([5]; read-out: pTGI (converted))?
Its TGI is 2190 nM.

And the IC50 [6]?
The IC50 was 820 nM.

What about the GI50 ([6]; read-out: GI50) of the same compound?
The GI50 was 815 nM.

And the CC50 [6, 29]?
The CC50 was greater than 100 µM.

What about the TGI ([6]; read-out: TGI) of the same compound?
The TGI was 9.98 µM.

What about the GI50 ([6]; read-out: pGI50 (converted)) of the same compound?
The GI50 was 813 nM.

And the CC50 [6, 30]?
The CC50 was greater than 100 µM.

What about the TGI ([6]; read-out: pTGI (converted)) of the same compound?
Its TGI is 10 µM.

What about the IC50 [7] of the same compound?
Its IC50 is 260 nM.

What about the GI50 ([7]; read-out: GI50) of the same compound?
The GI50 was 254 nM.

And the CC50 [7, 29]?
Its CC50 is 0.0597 µM.

What about the TGI ([7]; read-out: TGI) of the same compound?
Its TGI is 1580 nM.

What about the GI50 ([7]; read-out: pGI50 (converted)) of the same compound?
The GI50 was 263 nM.

What about the CC50 [7, 30] of the same compound?
Its CC50 is 6.92 µM.

What about the TGI ([7]; read-out: pTGI (converted)) of the same compound?
Its TGI is 1580 nM.

What about the IC50 [8] of the same compound?
Its IC50 is 470 nM.

What about the GI50 ([8]; read-out: GI50) of the same compound?
The GI50 was 459 nM.

What about the TGI ([8]; read-out: TGI) of the same compound?
The TGI was 10.6 µM.

And the GI50 ([8]; read-out: pGI50 (converted))?
The GI50 was 468 nM.

And the CC50 [8, 30]?
Its CC50 is 38.9 µM.

What about the TGI ([8]; read-out: pTGI (converted)) of the same compound?
The TGI was 10.7 µM.

And the IC50 [9]?
The IC50 was 2220 nM.

What about the GI50 ([9]; read-out: GI50) of the same compound?
The GI50 was 2220 nM.

And the TGI ([9]; read-out: TGI)?
Its TGI is 7.14 µM.

What about the GI50 ([9]; read-out: pGI50 (converted)) of the same compound?
The GI50 was 2820 nM.

What about the CC50 [9, 30] of the same compound?
Its CC50 is 61.7 µM.

And the TGI ([9]; read-out: pTGI (converted))?
Its TGI is 7.08 µM.

And the growth at 0.01 µM [10]?
Its growth at 0.01 µM is 94%.

And the growth at 0.01 µM [11]?
Its growth at 0.01 µM is 93%.

And the growth at 0.01 µM [12]?
The growth at 0.01 µM was 103%.

And the growth at 0.01 µM [13]?
The growth at 0.01 µM was 105%.

And the growth at 0.01 µM [14]?
The growth at 0.01 µM was 103%.

What about the growth at 0.1 µM [15] of the same compound?
The growth at 0.1 µM was 84%.

What about the growth at 0.1 µM [16] of the same compound?
Its growth at 0.1 µM is 95%.

And the growth at 0.1 µM [17]?
Its growth at 0.1 µM is 98%.

What about the growth at 0.1 µM [18] of the same compound?
The growth at 0.1 µM was 102%.

And the growth at 0.1 µM [19]?
Its growth at 0.1 µM is 96%.

What about the growth at 1 µM [20] of the same compound?
Its growth at 1 µM is 5%.

And the growth at 1 µM [21]?
Its growth at 1 µM is -12%.

What about the growth at 1 µM [22] of the same compound?
The growth at 1 µM was 40%.

What about the growth at 1 µM [23] of the same compound?
The growth at 1 µM was 22%.

What about the growth at 1 µM [24] of the same compound?
Its growth at 1 µM is 5%.

And the growth at 1 µM [25]?
The growth at 1 µM was 29%.

What about the growth at 100 µM [26] of the same compound?
Its growth at 100 µM is -39%.

What about the growth at 100 µM [27] of the same compound?
Its growth at 100 µM is -81%.

What about the growth at 100 µM [28] of the same compound?
Its growth at 100 µM is -80%.
